“And” between values parts separate entries of the source, which are not always exact repeats. Equal entries are not always repeated. Where two headings read alike, the source gives them in different places.
Columns and labels:
[1] = test system: MCF-7 human breast adenocarcinoma cells (hormone-dependent); experiment: SRB antiproliferative assay, MCF-7; assay type: cell-based; conditions: for IC50: SRB assay, 48 h incubation; for pIC50 MCF-7: p(IC50)= -Log(IC50), Table S4, this study
Procedure: (§1) Stock solutions of compounds 1a–5a and 1–5 (0.01 M) in DMSO were freshly prepared and subsequently diluted with cell culture media to appropriate concentrations for various biological experiments. These included the assessment of cell viability using the SRB assay, micronucleus testing, cell morphology studies, cell cycle arrest, AO/EB staining, and mitochondrial membrane permeabilization tests. For CT-DNA binding studies, experiments were conducted in DMSO/buffer solutions. All biological experiments were performed in triplicate or more.
(§2) Stock solutions of 1a–5a and 1–5 (0.01 M) were dissolved in DMSO and subsequently diluted with cell culture medium to the desired concentrations (0.5–30 μM). MCF-7, MDA MB-231, and MRC-5 cells were plated in 96-well flat-bottom microplates at various densities: 6000, 8000, and 2000 cells per well, respectively. The cells were incubated for 24 h at 37 °C and then exposed to 1a–5a and 1–5 for 48 h. ,–
(§3) Cytotoxicity was evaluated using the SRB colorimetric assay at λ = 568 nm, with cell survival percentages calculated relative to the untreated control cells. Detailed information on the SRB assay procedure can be found in the previous publication. ,–

MCF-7 cells [2] = experiment: AO/EB staining detection of apoptotic cells; assay type: cell-based, human; conditions: 48 h; for percentage of apoptotic cells: MCF-7, IC50 values, untreated 11.7 ± 2.8%
Procedure: Apoptotic MCF-7 cells were quantified and characterized using the AO/EB staining assay under fluorescence microscopy, and the results were correlated with previously observed morphological changes in the cells. The type of cell death was evaluated after incubation with complexes 1–5 for 48 h. This assay detects nuclear changes based on differences in membrane integrity between live and apoptotic cells. The fluorescent EB dye stains red only those cells that have lost membrane integrity, while the fluorescent AO dye stains both live and dead cells green. , Untreated MCF-7 cells display green radiation emitting nuclei. The percentage of apoptosis in untreated cells was calculated as 11.7 ± 2.8%. In apoptotic cells, varying degrees of changes are observed. Early stages of apoptosis are indicated by greenish-yellow fluorescent nuclei or green-yellow fragments, while late stages are characterized by orange fluorescence or the presence of orange fragments.
The MCF-7 cells were seeded into a 24-well plate (70,000 cells per well) and cultured at 37 °C for 24 h. […] Control and treated cells were collected after 48 h, the cells were harvested, washed twice with PBS and centrifuged. Twenty-five μL of cell suspension in PBS were incubated with 50 μg/mL AO and 50 μg/mL EB solution. Then, the cells were mixed gently and 10 μL of cells in suspension was placed on a glass slide and a coverslip was placed over it. At random, 300 cells were immediately observed in a fluorescent microscope (Optika inverted fluorescence microscope) and examined at ×60 magnification. ,

[3] = test system: normal human fetal lung fibroblast (MRC-5) cells; experiment: SRB toxicity assay, MRC-5; assay type: cell-based; conditions: 48 h incubation
Procedure: as §1, §2, §3

MCF-7 cells [4] = experiment: Cell cycle arrest, flow cytometry; assay type: cell-based, human; conditions: for cell population in sub-G1 phase / cell population in S phase / cell population in G0/G1 phase: MCF-7, IC50 values, 48 h; for cell population in sub-G1 phase: untreated 5.1%; for cell population in S phase: untreated 9.4%; for cell population in G0/G1 phase: untreated 38.8%
Procedure: The MCF-7 cells were seeded into a 24-well plate (70,000 cells per well) and cultured at 37 °C for 24 h. […] For each sample, 10,000 events were recorded. The resulting DNA histograms were drawn and quantified using the FlowJo software (version FlowJo X 10.0.7r2). This assay was performed as reported previously. ,–

[5] = test system: nontumorigenic human breast epithelial cell line (MCF-10A); experiment: SRB toxicity assay, MCF-10A; assay type: cell-based; conditions: 48 h incubation
Procedure: The toxicity of 1–5 was also evaluated against normal human fetal lung fibroblast (MRC-5) cells. Their IC50 values lie from 2.7 to 4.1 μM (Table ). The toxicity of these compounds was also evaluated against the nontumorigenic human breast epithelial cell line (MCF-10A), which is widely used as a model for normal human breast cells. They closely resemble normal human mammary epithelial cells in structure and are regulated by hormones and growth factors.
as §3

calf thymus (CT)-DNA = experiment: CT-DNA binding, UV absorption spectroscopy; conditions: for binding constant K b toward CT-DNA: UV absorbance at 300–310 nm, CT-DNA 10–100 μΜ; for percentage of hyperchromism: UV spectra of CT-DNA with gradual additions of complex
Procedure: In order to elucidate the mechanism of action of compounds 1–5 against MCF-7 cells, their interaction with CT-DNA was investigated using UV absorption and fluorescence spectroscopy. The UV absorption spectra of compounds 1–5 were recorded both in the presence and absence of CT-DNA (Figure S27). […] The calculated K b values for 1–5 are (10.5 ± 1.8) × 10^4 (1), (6.3 ± 0.6) × 10^4 (2), (11.3 ± 1.6) × 10^4 (3), (7.5 ± 1.0) × 10^4 (4) and (10.2 ± 1.1) × 10^4 (5) M^–1, respectively.
For the experiments of titration, UV spectra of CT-DNA in buffer solution in the absence and presence of 1–5 at r values of 0–0.13 (r = [complex]/[DNA], [DNA] = 10^–4 M) were recorded. ,− In order to determine the constant K b value, UV spectra of 1–5 in the absence and presence of CT-DNA at r values 1–0.1 ([complex] = 10 μM, [CT DNA] = 10–100 μM) were investigated.^24,26–30 The K b value is obtained from the ratio of the slope to the y-intercept in plots [DNA]/(εa–εf) versus [DNA] (e a = A obsd/[compound], e f = the extinction coefficient for the free compound). ,−

MRC-5 cells = experiment: In vitro micronucleus (MN) assay; assay type: cell-based, human; conditions: for Percentage of MN: IC50 values, control 2.9 ± 0.2
Procedure: MRC-5 cells were seeded at a density of 2 × 10^4 cells/well onto glass coverslips, which were placed in six-well plates containing 3 mL of cell culture medium and incubated for 24 h. […] After exposure, the coverslips were washed three times with PBS and treated with a hypotonic solution (75 mM KCl) for 10 min at room temperature. The hypotonized cells were fixed with at least three changes of a 1/3 acetic acid/methanol solution. Following fixation, the coverslips were washed with cold methanol containing 1% acetic acid. Acridine orange staining (50 μg/mL) was applied for 15 min at 37 °C, after which the coverslips were rinsed three times with PBS to remove any excess stain. The number of micronucleated cells per 1000 cells was then counted. ,– ,

[6] = test system: MDA-MB-231 human breast adenocarcinoma cells (hormone-independent); experiment: SRB antiproliferative assay, MDA-MB-231; assay type: cell-based; conditions: 48 h incubation
Procedure: as §1, §2, §3

| Structure (SMILES) | IC50 [1] | pIC50 MCF-7 [1] | relative rate of apoptotic MCF-7 cells in respect to untreated control (MCF-7 cells [2]) | percentage of apoptotic cells (MCF-7 cells [2]) | IC50 [3] | Relative rate of MCF-7 cells in sub-G1 phase compared to untreated cells (MCF-7 cells [4]) | cell population in sub-G1 phase (MCF-7 cells [4]) | cell population in S phase (MCF-7 cells [4]) | IC50 [5] | binding constant K b toward CT-DNA (calf thymus (CT)-DNA) | percentage of hyperchromism (calf thymus (CT)-DNA) | Relative ratio of MN in respect to untreated cells (MRC-5 cells) | Relative ratio of MN in respect to untreated cells (MRC-5 cells; 48 h) | Percentage of MN (MRC-5 cells; 48 h) | IC50 [6] | cell population in G0/G1 phase (MCF-7 cells [4]) | fold higher increase in MCF-7 sub-G1 population compared to the other compounds and cisplatin (MCF-7 cells [4]) |
| --- | --- | --- | --- | --- | --- | --- | --- | --- | --- | --- | --- | --- | --- | --- | --- | --- | --- |
| c1ccc(-c2nnc([S][Ag]([PH](c3ccccc3)(c3ccccc3)c3ccccc3)([PH](c3ccccc3)(c3ccccc3)c3ccccc3)[PH](c3ccccc3)(c3ccccc3)c3ccccc3)o2)cc1 [compound 1] | 2.03 ± 0.09 µM | 5.7 | 5.13 and 5.1 | 60.0 ± 5.2% | 3.77 ± 0.16 µM | 2.8 | 14.5% | 15.4% | 10.6 µM | 10.5 ± 1.8 × 10^4 M^–1 | 4.0% | 1.38 fold | 1.4 and 1.38 | 4.0 ± 0.6% | 4.09 ± 0.17 µM | – | – |
| Fc1ccccc1-c1nnc([S][Ag]([PH](c2ccccc2)(c2ccccc2)c2ccccc2)([PH](c2ccccc2)(c2ccccc2)c2ccccc2)[PH](c2ccccc2)(c2ccccc2)c2ccccc2)o1 [compound 2] | 2.5 ± 0.19 µM | 5.6 | 5.8 | 64.8 ± 2.5% | 3.12 ± 0.11 µM | 1.7 | 8.9% | – | 13.9 µM | 6.3 ± 0.6 × 10^4 M^–1 | 7.6% | 1.24 fold | 1.2 and 1.24 | 3.6 ± 0.5% | 3.9 ± 0.14 µM | 76.9% | – |
| Fc1ccc(-c2nnc([S][Ag]([PH](c3ccccc3)(c3ccccc3)c3ccccc3)([PH](c3ccccc3)(c3ccccc3)c3ccccc3)[PH](c3ccccc3)(c3ccccc3)c3ccccc3)o2)cc1 [compound 3] | 2.15 ± 0.16 µM | 5.7 | 4.01 and 4.0 | 46.9 ± 8.0% | 2.72 ± 0.19 µM | 2.5 | 12.8% | – | 10.9 µM | 11.3 ± 1.6 × 10^4 M^–1 and 11.3 × 10^4 M^–1 | 28.0% | 1.31 fold | 1.3 and 1.31 | 3.8 ± 0.2% | 2.52 ± 0.07 µM | 72.0% | – |
| Clc1ccccc1-c1nnc([S][Ag]([PH](c2ccccc2)(c2ccccc2)c2ccccc2)([PH](c2ccccc2)(c2ccccc2)c2ccccc2)[PH](c2ccccc2)(c2ccccc2)c2ccccc2)o1 [compound 4] | 3 ± 0.15 µM | 5.5 | 4.03 and 4.0 | 47.2 ± 5.6% | 4.07 ± 0.24 µM | 2.6 | – | 26.5% | 16 µM | 7.5 ± 1.0 × 10^4 M^–1 | 8.5% | 1.69 fold | 1.7 and 1.69 | 4.9 ± 0.5% | 4.27 ± 0.15 µM | – | 3 fold |
| Clc1cccc(-c2nnc([S][Ag]([PH](c3ccccc3)(c3ccccc3)c3ccccc3)([PH](c3ccccc3)(c3ccccc3)c3ccccc3)[PH](c3ccccc3)(c3ccccc3)c3ccccc3)o2)c1 [compound 5] | 1.69 ± 0.08 µM | 5.8 | 5.5 | 64.3 ± 8.2% | 2.89 ± 0.08 µM | 8.1 | 41.1% | 48.3% | 16.1 µM | 10.2 ± 1.1 × 10^4 M^–1 and 10.2 × 10^4 M^–1 | 1.2% | – | 2.3 and 2.34 | 6.8 ± 1.5% | 3.55 ± 0.19 µM | – | – |

— paper PMC12239085, “Silver(I) Ions Bridging Oxadiazole-2-thione Derivatives with Mitochondriotropic Agents: A Promising Strategy for Potent Anticancer Chemotherapy” (Inorganic Chemistry, 2025)
